# “And” between values parts separate entries of the source, which are not always exact repeats. Equal values may be shown once. “Also recorded” adds a separate entry of the source. Non-standard residues stand in square brackets, D forms with d. Residues, ends and D or L forms follow the SMILES beside them. pS = N[C@@H](COP(=O)(O)O)C(=O)O
# How the values were obtained:
# [1] = Cynomolgus monkey toxicity test: urinalysis; format: in vivo
# Experimental: (§1) The test was completed by Suzhou Xishan Zhongke Drugs Research and Development Co., Ltd. (Xishan, Suzhou, China). The study proposal was approved by the Institute Animal Care and Use Committee (IACUC, ID19012912). Cynomolgus monkeys (3-4 years old) were randomly divided into three groups (n = 4 per group, half male and female); and the monkeys were treated with solvent control (Mannitol in saline, 75 mg/kg/d), JP1 (45 mg/kg/day) and JP1 (150 mg/kg/day) for 14 days. The experiment was ended on 15th day and the animals were euthanasia. The relevant clinical parameters were determined on 7th and 13th day, respectively. The observed parameters were including clinical symptoms, weight, food intake, body temperature, ophthalmology, electrocardiogram, blood routine examination, blood biochemistry, blood coagulation, urinalysis, immunotoxicity.
# (§2) Supplementary database files: Cynomolgus monkey toxicity test […]
# (§3) The study was conducted by a contract service in Suzhou Xishan Zhongke Drugs Research and Development Co., Ltd. (Xishan, Suzhou, China). All the use of animals were approved by the Institute Animal Care and Use Commttee, IACUC. IACUC no. :
# (§4) ID19012912. The veterinarian will supervise the breeding and welfare of the animals. The company follows the Guide for the Care and Use of Laboratory Animals (8th ed., 2011).
# (§5) Cynomolgus monkeys (3-4 years old) were randomly divided into three groups (n = 4 per group, two males and two females for each group); and treated q.d./i.v. with Mannitol (75 mg/kg/d in saline), JP1 (45 mg/kg/d) and JP1 (150 mg/kg/d) for 14 days, respectively. JP1 was dissolved in saline (100 mg/2 ml) and administered intravenously at a rate of 3 ml/min.
# (§6) The JP1 was provided by Hybio Pharmaceutical Co., Ltd. (Shenzhen, China); the production of small packaging preparation (100 mg/vial in freeze-dried powder, purity > 98%; -20 °C for storage and transportation) was completed under strict GMP conditions and quality control procedures for biological preparations. No recovery period was set for this test; the experimental model was ended on 15th day. The relevant clinical indicators including symptoms, body weight, food intake, temperature, ophthalmology, electrocardiogram, blood routine examination, blood biochemistry, blood coagulation, urinalysis, immunotoxicity were determined on 7th and 13th, respectively. […]
# (§7) indicators in all animals, and the pathological observation of organs was not determined. […]
# (§8) relevant clinical indicators in two JP1 groups were no difference compared with those in […]
# (§9) Level (NOAEL) of JP1 was 150 mg/kg.
# LD50 in mouse = conditions: in vivo
# [2] = Cynomolgus monkey toxicity test: body weight; format: in vivo
# Experimental: as §1, §2, §3, §4, §5
# The JP1 was provided by Hybio Pharmaceutical Co., Ltd. (Shenzhen, China); the production of small packaging preparation (100 mg/vial in freeze-dried powder, purity > 98%; -20 °C for storage and transportation) was completed under strict GMP conditions and quality control procedures for biological preparations. No recovery period was set for this test; the experimental model was ended on 15th day. […]
# as §8, §9
# in vivo = conditions: male, Sprague-Dawley, rat, ip, 100 mg/kg, half-life (t1/2)
# Experimental: (§10) The drug half-life (t1/2) is calculated by the formula t1/2 = 0.693/k, where k is the elimination rate constant (k = (Inc1-Inc2)/(t2-t1)).
# [3] = Cynomolgus monkey toxicity test: blood coagulation; format: in vivo
# Experimental: as §1, §2, §3, §4, §5, §6, §7, §8, §9
# [4] = 14-day cynomolgus monkey toxicity test (overall); format: in vivo
# Experimental: as §1, with “The observed parameters were including clinical symptoms, weight, food intake, body temperature, ophthalmology, electrocardiogram, blood routine examination, blood biochemistry, blood coagulation, urinalysis, immunotoxicity.” left out
# as §6, with “No recovery period was set for this test; the experimental model was ended on 15th day.” left out
# as §7
# [5] = Preliminary pharmacokinetic analysis in SD rats
# Experimental: as §10
# [6] = JP1 45 mg/kg/d i.v., D7, monkeys 1105,1106,2107,2108
# [7] = JP1 45 mg/kg/d i.v., D7, monkeys 1105,1106,2107,2108, 45 mg/kg/day
# [8] = JP1 45 mg/kg/d i.v., D13, monkeys 1105,1106,2107,2108
# [9] = JP1 45 mg/kg/d i.v., D13, monkeys 1105,1106,2107,2108, 45 mg/kg/day
# [10] = JP1 150 mg/kg/d i.v., D7, monkeys 1209,1210,2211,2212
# [11] = JP1 150 mg/kg/d i.v., D7, monkeys 1209,1210,2211,2212, 150 mg/kg/day
# [12] = JP1 150 mg/kg/d i.v., D13, monkeys 1209,1210,2211,2212
# [13] = JP1 150 mg/kg/d i.v., D13, monkeys 1209,1210,2211,2212, 150 mg/kg/day
# [14] = male, Sprague-Dawley, rat, blood, ip, 100 mg/kg
smiles,measurement,setting,value
CC(=O)N[C@@H](Cc1ccccc1)C(=O)N1CCC[C@H]1C(=O)NCC(=O)N[C@@H](COP(=O)(O)O)C(=O)N[C@@H](CC(=O)O)C(=O)N[C@@H](CCCNC(=N)N)C(=O)N[C@@H](Cc1ccccc1)C(=O)NCC(=O)NCC(=O)NCC(=O)NCC(=O)N[C@@H](CCCNC(=N)N)C(=O)NCC(=O)N[C@@H](CC(=O)O)C(N)=O [JP1] (Ac-FPG[pS]DRFGGGGRGD-NH2),GLU (urine),[1]; [6],NORMAL
same,URO (Urobilinogen),[1]; [6],NORMAL
same,COL (urine),[1]; [7],COLORLESS; also recorded: YELLOW
same,SG (Urine specific gravity),[1]; [7],1.004 and 1.005 and 1.008 and 1.012
same,pH (urine),[1]; [7],8.0 and 8.5
same,COL (urine),[1]; [8],COLORLESS
same,GLU (urine),[1]; [8],NORMAL
same,URO (Urobilinogen),[1]; [8],NORMAL
same,SG (Urine specific gravity),[1]; [9],1.006 and 1.007 and 1.009
same,pH (urine),[1]; [9],7.5 and 8.0 and 8.5
same,GLU (urine),[1]; [10],NORMAL
same,URO (Urobilinogen),[1]; [10],NORMAL
same,COL (urine),[1]; [11],LIGHT YELLOW; also recorded: COLORLESS
same,SG (Urine specific gravity),[1]; [11],1.002 and 1.009 and 1.020 and 1.006
same,pH (urine),[1]; [11],7.5 and 8.5
same,GLU (urine),[1]; [12],NORMAL
same,LEU (Urine leukocyte),[1]; [12],NEG.
same,URO (Urobilinogen),[1]; [12],NORMAL
same,COL (urine),[1]; [13],COLORLESS; also recorded: LIGHT YELLOW
same,SG (Urine specific gravity),[1]; [13],1.004 and 1.013 and 1.005 and 1.009
same,pH (urine),[1]; [13],8.0 and 8.5 and 7.5
same,LD50,LD50 in mouse,> 5000 mg/kg
same,Body weight,[2]; [7],2.1 kg and 2.2 kg and 2.3 kg
same,Body weight,"[2]; JP1 45 mg/kg/d i.v., D14, monkeys 1105,1106,2107,2108, 45 mg/kg/day",2.5 kg and 2.4 kg
same,Body weight,[2]; [11],2.4 kg and 2.2 kg and 2.3 kg
same,Body weight,"[2]; JP1 150 mg/kg/d i.v., D14, monkeys 1209,1210,2211,2212, 150 mg/kg/day",2.2 kg and 2.3 kg and 2.6 kg
same,half-life,in vivo,~1.32 h
same,APTT,[3]; [7],23.2 s and 28.0 s and 25.5 s and 25.1 s
same,FIB,[3]; [7],2.59 g/L and 2.84 g/L and 2.33 g/L and 2.34 g/L
same,PT,[3]; [7],11.8 s and 11.0 s and 12.2 s and 11.9 s
same,APTT,[3]; [9],25.3 s and 24.6 s and 24.2 s and 22.6 s
same,FIB,[3]; [9],3.02 g/L and 2.81 g/L and 2.68 g/L and 2.51 g/L
same,PT,[3]; [9],11.7 s and 12.2 s and 10.9 s
same,APTT,[3]; [11],23.7 s and 25.2 s and 33.8 s and 27.7 s
same,FIB,[3]; [11],2.71 g/L and 3.21 g/L and 2.66 g/L and 2.89 g/L
same,PT,[3]; [11],11.8 s and 12.5 s and 11.7 s and 12.0 s
same,APTT,[3]; [13],23.5 s and 24.9 s and 29.9 s and 27.8 s
same,FIB,[3]; [13],2.90 g/L and 2.99 g/L and 2.97 g/L and 3.27 g/L
same,PT,[3]; [13],11.9 s and 12.4 s and 11.8 s and 11.7 s
same,"changes in detected parameters (clinical symptoms, weight, food intake, body temperature, ophthalmology, ECG, blood, urinalysis, immune-toxicity)","[4]; I.V. 45 or 150 mg/kg/day for 14 days, compared to control",no significant changes in all detected parameters
same,NOAEL at 14 days,"[4]; both sexes, in vivo, iv, 14 days, read-out: no observed adverse effect level (NOAEL)",150 mg/kg
same,elimination rate constant k,"[5]; SD rats, 100 mg/kg i.p., from 0.25 h and 1 h concentrations",0.526
same,level at 0.25 h,[5]; [14],20500 ng/mL
same,level at 1 h,[5]; [14],13800 ng/mL

# Reference: article PMC7381750, “JP1 suppresses proliferation and metastasis of melanoma through MEK1/2 mediated NEDD4L-SP1-Integrin αvβ3 signaling” (Theranostics, 2020)
